Earlier results in patent EP4140474A1, “NUT[…] THE REDUCTION OF OSTE[…] AND INFLAMMATION” (Theracell Advanced Biotechnology S.A., priority 2021, dated 2023).
pIC50: −log10 of the molar value.

Experiments:
MMP13 = MMP13 (Homo sapiens, UniProt P45452); settings: selective inhibitor of MMP13

With `Oc1ccc(C=Cc2cc(O)cc(O)c2)cc1` [resveratrol] as the molecule, how does the pIC50 (lipoxygenase) read?
The pIC50 was 5.57.

With `O=C(/C=C/c1ccc(O)c(O)c1)O[C@H](Cc1ccc(O)c(O)c1)C(=O)O` [rosmarinic, rosmarinic acid] as the molecule, how does the pIC50 (MMP13) read?
The pIC50 was 5.54.
